From PMC2709368 (The Journal of Biological Chemistry, 2009)

Biological target: T1, prolectin (Homo sapiens, UniProt Q6ZS10)
T1 sequence (Q6ZS10 194-378 limits assumed): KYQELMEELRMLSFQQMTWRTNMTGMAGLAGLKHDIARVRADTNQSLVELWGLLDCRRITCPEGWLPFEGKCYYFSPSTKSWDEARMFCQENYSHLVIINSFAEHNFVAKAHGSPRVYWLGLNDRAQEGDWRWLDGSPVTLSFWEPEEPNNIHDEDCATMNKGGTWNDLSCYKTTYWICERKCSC
Experiment: solid-phase competition binding, […]-Man-BSA reporter
Conditions: competitive; immobilised extracellular domain; Ca2+-dependent site

Structure (SMILES) | Relative KI
CC(=O)N[C@H]1C(O)O[C@H](CO)[C@@H](O[C@@H]2O[C@@H](C)[C@@H](O)[C@@H](O)[C@@H]2O)[C@@H]1O[C@@H]1O[C@H](CO)[C@H](O)[C@H](O)[C@H]1O (stereo partly shown) [Le^a] | 0.22 ± 0.01 relative to KI of αMe-Man
C[C@@H]1OC(O)[C@@H](O)[C@H](O)[C@@H]1O (stereo partly shown) [Fuc] | 1.1 ± 0.1 relative to KI of αMe-Man
CC(=O)N[C@H]1C(O)O[C@H](CO)[C@@H](O)[C@@H]1O (stereo partly shown) [GlcNAc] | 1.2 ± 0.1 relative to KI of αMe-Man

Other lines, results leading:

Relative KI | Structure (SMILES)
0.72 ± 0.08 relative to KI of αMe-Man | CC(=O)N[C@H]1C(O)O[C@H](CO)[C@@H](O[C@@H]2O[C@H](CO)[C@H](O)[C@H](O)[C@H]2O)[C@@H]1O[C@@H]1O[C@@H](C)[C@@H](O)[C@@H](O)[C@@H]1O (stereo partly shown) [Le^x]
3.2 ± 0.1 relative to KI of αMe-Man | CO[C@H]1O[C@H](CO)[C@@H](O)[C@H](O)[C@H]1O [αMe-Glc]
> 30 relative to KI of αMe-Man | CO[C@H]1O[C@H](CO)[C@H](O)[C@H](O)[C@H]1O [αMe-Gal]
1.2 ± 0.1 relative to KI of αMe-Man | OC[C@H]1OC(O)[C@@H](O)[C@@H](O)[C@@H]1O (stereo partly shown) [Man]
